Here are results for 3 compounds from patent US9775351B2, “Ternary fungicidal and pesticidal mixtures” (BAYER CROPSCIENCE AG, priority 2012, dated 2017).

The test system of this assay is Rhizoctonia solani. Description: Rhizoctonia test (cotton)/seed treatment. The assay is classed as in vivo. The conditions noted are these: greenhouse, 7 days at 20° C. On the procedure:
Rhizoctonia Test (Cotton)/Seed Treatment
The test is performed under greenhouse conditions.
Commercially available disease control agents, active compounds solved in N-methyl-2-pyrrolidon, or combinations thereof were diluted with water to the desired dosages. Cotton seeds were treated with this preparations and sown in 6*6 cm pots containing 4 cm of a 1:1 mix of steamed field soil and sand, mixed with a perlite-culture of Rhizoctonia solani.
Pots were incubated in the greenhouse for 7 days at 20° C.
Assessment consisted of counting of emerged seedlings and diseased plants. 0% means an efficacy which corresponds to that of the untreated control, while an efficacy of 100% means that all seedlings have emerged and are healthy.

Regarding `CC1CC(C)(C)c2cccc(NC(=O)c3cn(C)nc3C(F)F)c21` (stereo not drawn) [(I-1), 3-(difluoromethyl)-1-methyl-N-(1,1,3-trimethyl-2,3-dihydro-1H-inden-4-yl)-1H-pyrazole-4-carboxamide], the Efficacy in % (application rate 10 g a.i./dt) is 41%.
With `COCC(=O)N(c1c(C)cccc1C)C(C)C(=O)OC` (stereo not drawn) [metalaxyl], where the note is “application rate 1 g a.i./dt”, the Efficacy in % came to 12%.
For `CN/C(=N\[N+](=O)[O-])NCc1cnc(Cl)s1` [clothianidin], under “application rate 12 g a.i./dt”, the Efficacy in % is given as 24%.
